Values of other authors in patent US20220347399A1, “SYSTEMS AND METHODS OF USING AN ULTRASONIC FOGGER TO DISTRIBUTE AN ANTISEPTIC SOLUTION” (Wonder Spray, LLC, priority 2021, published 2022).

Assays:
f2 RNA = details: f2 capsid proteins could still adsorb to the host
E. coli [1] = details: 50 mM (2.6 ppm) HOCl, within 5 minutes
E. coli [2] = details: 50 mM (2.6 ppm) HOCl, within 5 minutes; remark: listed apart in the source
[3] = inhalation of vaporized HOCl

OCl [HOCl, Hypochlorous acid]
inactivation of naked f2 RNA versus RNA in intact phage (f2 RNA): inactivated naked f2 RNA at the same rate as RNA in intact phage
inhibition of the growth of E. coli (E. coli [1]): completely inhibited
inhibition of DNA synthesis (E. coli [2]): ninety-six
adverse effects on inhaling the vaporized form [3]: no adverse effects
